PubChem BioAssay AID226 (DTP/NCI, 2004)
Where “and” joins values, the source holds several entries; their conditions need not be identical. Equal values may be shown once. Inconclusive results and toxic doses are left out.

Tested on: B6C3F1 mice, intracerebral ependymoblastoma, median survival T/C
Assay: NCI In Vivo Anticancer Drug Screen. Data for tumor model Ependymoblastoma (intracerebral) in B6C3F1 mice
Conditions: endpoint: median survival time, higher = longer survival
Procedure: The antitumor activity of compounds was measured in mice bearing transplantable tumors. Survival or tumor size were measured and the results are expressed as the measurement made in the treated group (T) divided by the measurement made in the vehicle treated control group (C). The tumor model used in this assay is Ependymoblastoma (intracerebral) in B6C3F1 mice

[1] = dose: 0.25 mg/kg/injection, schedule: Q01DX005 (ip), vehicle: saline
[2] = dose: 0.75 mg/kg/injection, schedule: Q01DX005 (ip), vehicle: saline
[3] = dose: 1.5 mg/kg/injection, schedule: Q01DX005 (ip), vehicle: saline
[4] = dose: 50.0 mg/kg/injection, schedule: Q01DX005 (ip), vehicle: Klucel (hydroxypropylcellulose) (HPC)
[5] = dose: 100.0 mg/kg/injection, schedule: Q01DX005 (ip), vehicle: Klucel (hydroxypropylcellulose) (HPC)
[6] = dose: 3.12 mg/kg/injection, schedule: Q01DX005 (ip), vehicle: Klucel (hydroxypropylcellulose) (HPC)
[7] = dose: 6.25 mg/kg/injection, schedule: Q01DX005 (ip), vehicle: Klucel (hydroxypropylcellulose) (HPC)
[8] = dose: 12.5 mg/kg/injection, schedule: Q01DX005 (ip), vehicle: Klucel (hydroxypropylcellulose) (HPC)
[9] = dose: 25.0 mg/kg/injection, schedule: Q01DX005 (ip), vehicle: Klucel (hydroxypropylcellulose) (HPC)

O=NN(CCCl)C(=O)NC1CCCCC1
T/C (dose: 1.5 mg/kg/injection, schedule: Q01DX009 (ip), vehicle: Klucel (hydroxypropylcellulose) (HPC)): 110 % of control
T/C (dose: 2.4 mg/kg/injection, schedule: Q01DX001 (ip), vehicle: other): 98 % of control
T/C (dose: 4.0 mg/kg/injection, schedule: Q01DX009 (ip), vehicle: Klucel (hydroxypropylcellulose) (HPC)): 241 % of control
T/C (dose: 4.7 mg/kg/injection, schedule: Q01DX001 (ip), vehicle: other): 102 % of control
T/C (dose: 5.18 mg/kg/injection, schedule: Q01DX005 (ip), vehicle: Klucel (hydroxypropylcellulose) (HPC)): 154 % of control
T/C (dose: 6.0 mg/kg/injection, schedule: Q01DX009 (ip), vehicle: Klucel (hydroxypropylcellulose) (HPC)): 213 % of control
T/C (dose: 8.0 mg/kg/injection, schedule: Q01DX009 (ip), vehicle: Klucel (hydroxypropylcellulose) (HPC)): 241 % of control
T/C (dose: 8.64 mg/kg/injection, schedule: Q01DX005 (ip), vehicle: Klucel (hydroxypropylcellulose) (HPC)): 244 % of control
T/C (dose: 9.5 mg/kg/injection, schedule: Q01DX001 (ip), vehicle: other): 121 % of control
T/C (dose: 12.0 mg/kg/injection, schedule: Q01DX009 (ip), vehicle: Klucel (hydroxypropylcellulose) (HPC)): 326 % of control
T/C (dose: 13.0 mg/kg/injection, schedule: Q01DX001 (ip), vehicle: Klucel (hydroxypropylcellulose) (HPC)): 181 % of control
T/C (dose: 14.4 mg/kg/injection, schedule: Q01DX005 (ip), vehicle: Klucel (hydroxypropylcellulose) (HPC)): 357 % of control
T/C (dose: 16.0 mg/kg/injection, schedule: Q01DX009 (ip), vehicle: Klucel (hydroxypropylcellulose) (HPC)): 104 % of control
T/C (dose: 18.9 mg/kg/injection, schedule: Q01DX001 (ip), vehicle: other): 171 % of control
T/C (dose: 21.6 mg/kg/injection, schedule: Q01DX001 (ip), vehicle: Klucel (hydroxypropylcellulose) (HPC)): 193 % of control
T/C (dose: 24.0 mg/kg/injection, schedule: Q01DX005 (ip), vehicle: Klucel (hydroxypropylcellulose) (HPC)): 357 % of control
T/C (dose: 24.0 mg/kg/injection, schedule: Q01DX009 (ip), vehicle: Klucel (hydroxypropylcellulose) (HPC)): 315 % of control
T/C (dose: 32.0 mg/kg/injection, schedule: Q01DX001 (ip), vehicle: saline + alcohol): 233 % of control
T/C (dose: 36.0 mg/kg/injection, schedule: Q01DX001 (ip), vehicle: Klucel (hydroxypropylcellulose) (HPC)): 363 % of control
T/C (dose: 37.8 mg/kg/injection, schedule: Q01DX001 (ip), vehicle: other): 331 % of control
T/C (dose: 40.0 mg/kg/injection, schedule: Q01DX005 (ip), vehicle: Klucel (hydroxypropylcellulose) (HPC)): 154 % of control
T/C (dose: 60.0 mg/kg/injection, schedule: Q01DX001 (ip), vehicle: Klucel (hydroxypropylcellulose) (HPC)): 363 % of control
T/C (dose: 64.0 mg/kg/injection, schedule: Q01DX001 (ip), vehicle: saline + alcohol): 324 % of control
T/C (dose: 100.0 mg/kg/injection, schedule: Q01DX001 (ip), vehicle: Klucel (hydroxypropylcellulose) (HPC)): 363 % of control
T/C (dose: 128.0 mg/kg/injection, schedule: Q01DX001 (ip), vehicle: saline + alcohol): 90 % of control

O=C1C(NCCO)=C(N2CC2)C(=O)C(NCCO)=C1N1CC1
T/C (dose: 0.06 mg/kg/injection, schedule: Q01DX005 (ip), vehicle: saline): 112 % of control
T/C (dose: 0.12 mg/kg/injection, schedule: Q01DX005 (ip), vehicle: saline): 113 % of control
T/C (dose: 0.19 mg/kg/injection, schedule: Q01DX005 (ip), vehicle: saline): 96 % of control
T/C [1]: 91 % of control and 120 % of control
T/C (dose: 0.38 mg/kg/injection, schedule: Q01DX005 (ip), vehicle: saline): 100 % of control
T/C (dose: 0.5 mg/kg/injection, schedule: Q01DX005 (ip), vehicle: saline): 106 % of control
T/C [2]: 117 % of control
T/C (dose: 1.0 mg/kg/injection, schedule: Q01DX005 (ip), vehicle: saline): 114 % of control
T/C [3]: 120 % of control
T/C (dose: 2.0 mg/kg/injection, schedule: Q01DX005 (ip), vehicle: saline): 110 % of control

OC(C1CO1)C(O)C1CO1 (configuration not stated)
T/C [1]: 112 % of control
T/C (dose: 0.5 mg/kg/injection, schedule: Q01DX005 (ip), vehicle: water): 115 % of control
T/C (dose: 1.0 mg/kg/injection, schedule: Q01DX001 (ip), vehicle: saline): 94 % of control and 121 % of control
T/C (dose: 1.0 mg/kg/injection, schedule: Q01DX005 (ip), vehicle: water): 112 % of control
T/C (dose: 1.0 mg/kg/injection, schedule: Q#A X002 (ip), vehicle: water): 105 % of control
T/C (dose: 2.0 mg/kg/injection, schedule: Q01DX001 (ip), vehicle: saline): 113 % of control
T/C (dose: 2.0 mg/kg/injection, schedule: Q01DX001 (ip), vehicle: water): 105 % of control and 110 % of control and 118 % of control
T/C (dose: 2.0 mg/kg/injection, schedule: Q01DX005 (ip), vehicle: water): 124 % of control
T/C (dose: 2.0 mg/kg/injection, schedule: Q#A X002 (ip), vehicle: water): 112 % of control
T/C (dose: 4.0 mg/kg/injection, schedule: Q01DX001 (ip), vehicle: saline): 113 % of control
T/C (dose: 4.0 mg/kg/injection, schedule: Q01DX001 (ip), vehicle: water): 116 % of control and 117 % of control
T/C (dose: 4.0 mg/kg/injection, schedule: Q01DX005 (ip), vehicle: water): 181 % of control
T/C (dose: 8.0 mg/kg/injection, schedule: Q01DX001 (ip), vehicle: saline): 113 % of control
T/C (dose: 8.0 mg/kg/injection, schedule: Q01DX001 (ip), vehicle: water): 151 % of control
T/C (dose: 8.0 mg/kg/injection, schedule: Q#A X002 (ip), vehicle: water): 175 % of control
T/C (dose: 16.0 mg/kg/injection, schedule: Q01DX001 (ip), vehicle: saline): 150 % of control and 166 % of control
T/C (dose: 16.0 mg/kg/injection, schedule: Q01DX001 (ip), vehicle: water): 175 % of control

CC(=O)Nc1ccc(/C=N/NC(N)=S)cc1
T/C [4]: 93 % of control
T/C [5]: 91 % of control
T/C (dose: 200.0 mg/kg/injection, schedule: Q01DX005 (ip), vehicle: Klucel (hydroxypropylcellulose) (HPC)): 90 % of control
T/C (dose: 400.0 mg/kg/injection, schedule: Q01DX005 (ip), vehicle: Klucel (hydroxypropylcellulose) (HPC)): 91 % of control
T/C (dose: 800.0 mg/kg/injection, schedule: Q01DX005 (ip), vehicle: Klucel (hydroxypropylcellulose) (HPC)): 112 % of control

C/C(=C\c1ccccc1)[N+](=O)[O-]
T/C [6]: 96 % of control
T/C [7]: 100 % of control
T/C [8]: 92 % of control
T/C [9]: 92 % of control
T/C [4]: 91 % of control
T/C [5]: 91 % of control

CCC(=O)NC1=C(N2CC2C)C(=O)C(NC(=O)CC)=C(N2CC2C)C1=O (configuration not stated)
T/C (dose: 0.78 mg/kg/injection, schedule: Q01DX009 (ip), vehicle: Klucel (hydroxypropylcellulose) (HPC)): 105 % of control
T/C (dose: 1.56 mg/kg/injection, schedule: Q01DX009 (ip), vehicle: Klucel (hydroxypropylcellulose) (HPC)): 110 % of control
T/C (dose: 3.12 mg/kg/injection, schedule: Q01DX009 (ip), vehicle: Klucel (hydroxypropylcellulose) (HPC)): 106 % of control
T/C (dose: 6.25 mg/kg/injection, schedule: Q01DX009 (ip), vehicle: Klucel (hydroxypropylcellulose) (HPC)): 105 % of control

CN(C)N=Nc1ccc([N+](=O)[O-])cc1C(N)=O
T/C (dose: 32.0 mg/kg/injection, schedule: Q01DX005 (ip), vehicle: saline with Tween-80): 112 % of control
T/C (dose: 256.0 mg/kg/injection, schedule: Q01DX005 (ip), vehicle: saline with Tween-80): 167 % of control
T/C (dose: 512.0 mg/kg/injection, schedule: Q01DX005 (ip), vehicle: saline with Tween-80): 150 % of control

Nc1ncn(C2OC(CO)C(O)C2O)c(=O)n1 (configuration not stated)
T/C (dose: 0.59 mg/kg/injection, schedule: Q03HX024 (ip), vehicle: saline): 111 % of control
T/C [2]: 116 % of control
T/C (dose: 1.17 mg/kg/injection, schedule: Q03HX024 (ip), vehicle: saline): 109 % of control
T/C [3]: 109 % of control
T/C (dose: 2.34 mg/kg/injection, schedule: Q03HX024 (ip), vehicle: saline): 116 % of control
T/C (dose: 3.0 mg/kg/injection, schedule: Q01DX005 (ip), vehicle: saline): 116 % of control
T/C (dose: 9.38 mg/kg/injection, schedule: Q03HX024 (ip), vehicle: saline): 154 % of control

CCC(=O)OCC1OC(n2cnc3c(=S)nc(N)[nH]c32)C(OC(=O)CC)C1OC(=O)CC (configuration not stated)
T/C [6]: 104 % of control
T/C [7]: 110 % of control
T/C [8]: 121 % of control
T/C [9]: 120 % of control

CC([NH-])C[NH-].[Cl][Pt+2][Cl] (configuration not stated)
T/C (dose: 2.0 mg/kg/injection, schedule: Q01DX005 (ip), vehicle: dextrose): 94 % of control
